# Earlier results in PMC7395068, “The evolution of strategies to minimise the risk of human drug-induced liver injury (DILI) in drug discovery and development” (Archives of Toxicology, 2020).
# Where two headings read alike, the source gives them in different places.
# Assays:
# [1] = test system: HepG2 cells; conditions: cited from earlier work; for Structural based (HCI), In vitro Assay: HepG2 HCI
# [2] = cited from earlier work
# [3] = test system: isolated mouse liver mitochondria; conditions: cited from earlier work
# [4] = test system: HepG2 cells; conditions: cited from earlier work
# [5] = cited from earlier work; remark: listed apart in the source
# [6] = test system: human hepatocytes; conditions: cited from earlier work
# [7] = test system: THLE or HepG2 cells, isolated mitochondria, BSEP; conditions: cited from earlier work
# [8] = assignment in O'Brien 2006, ref O'Brien 2006
# [9] = In vitro Assay, ref O'Brien 2006
smiles,measurement,setting,value
CC[C@H](C)C(=O)O[C@H]1CCC=C2C=C[C@H](C)[C@H](CC[C@@H]3C[C@@H](O)CC(=O)O3)[C@H]21 [mevastatin],"Structural based (HCI), In vitro Assay",[1]; ref O'Brien 2006,-VE
same,In vivo DILI,[2]; [8],-VE
CN1CCC[C@H]1c1cccnc1 [nicotine],in vitro data EC20<=2uM,[3],-VE
same,Cluser analysis,[4],-VE
same,In vivo DILI,[2]; in vivo,-VE
O=C(O)P(=O)(O)O [foscarnet],"DILI +VE (5-8), DILI -VE (-4)",[5]; ref Chen 2016,-VE
same,DILI severity category,[5]; ref Chen 2016,Ambiguous DILI-concern
same,Structural based (HCI),[1]; [9],+VE (lowest HCI endpoint IC50 (or in the absence of dose–response < 100 µM) < 30 × total human plasma exposure levels (Cmax.tot))
same,In vivo DILI,[2]; ref O'Brien 2006,-VE
CCC1(c2ccccc2)C(=O)NCNC1=O [primidone],"DILI +VE (5-8), DILI -VE (-4)",[5]; in vivo,-VE
same,Structural based (HCI),[1],+VE
CCOC(=O)[C@H](CCc1ccccc1)N[C@@H](C)C(=O)N1CCC[C@H]1C(=O)O [enalapril],"DILI +VE (5-8), DILI -VE (-4)",[5]; ref Chen 2016,+VE
same,DILI severity category,[5]; ref Chen 2016,vLess-DILI-Concern
same,Structural based (HCI),[1]; [9],+VE (lowest HCI endpoint IC50 (or in the absence of dose–response < 100 µM) < 30 × total human plasma exposure levels (Cmax.tot))
same,In vivo DILI,[2]; ref O'Brien 2006,+VE
CCCc1cc(=O)[nH]c(=S)[nH]1 [propylthiouracil],in vitro data EC2<=1x Cmax,"[3]; In vitro Assay, ref Porceddu 2012",+VE
same,"DILI +VE (5-8), DILI -VE (-4)",[5]; in vivo,+VE
same,DILI severity category,[5]; in vivo,vMost-DILI-Concern
same,Cluser analysis,[4],-VE
same,Structural based (HCI),[4],-VE
Nc1ccc(C(=O)O)c(O)c1 [aminosalycilate],Structural based (HCI),[1],+VE (key: +VE: lowest HCI endpoint IC50 (or in the absence of dose–response < 100 µM) < 30 × total human plasma exposure levels (Cmax.tot))
Nc1ccc(S(=O)(=O)Nc2ccnn2-c2ccccc2)cc1 [sulfaphenazole],Structural based (HCI),[1]; [9],+VE (lowest HCI endpoint IC50 (or in the absence of dose–response < 100 µM) < 30 × total human plasma exposure levels (Cmax.tot))
same,In vivo DILI,[2]; […],-VE
same,In vivo DILI,[2]; ref O'Brien 2006,+VE
CCCc1cc(=O)[nH]c(=S)[nH]1 [propythiouracil],"Structural based (HCI), In vitro Assay",[1]; ref O'Brien 2006,+VE
NNc1nncc2ccccc12 [hydralazine],"DILI +VE (5-8), DILI -VE (-4)",[5]; ref Chen 2016,+VE
same,DILI severity category,[5]; ref Chen 2016,vLess-DILI-Concern
same,Structural based (HCI),[1]; [9],+VE (lowest HCI endpoint IC50 (or in the absence of dose–response < 100 µM) < 30 × total human plasma exposure levels (Cmax.tot))
same,In vivo DILI,[2]; […],+VE
same,In vivo DILI,[2]; ref O'Brien 2006,+VE
CC[C@]12CCCN3CCc4c(n(c5ccccc45)[C@@](O)(C(=O)OC)C1)[C@@H]32 [vincamine],"Structural based (HCI), In vitro Assay",[1]; ref O'Brien 2006,+VE
same,In vivo DILI,[2]; [8],-VE
O=C(O)CCCC[C@@H]1SC[C@@H]2NC(=O)N[C@@H]21 [biotin],in vitro data EC20<=2uM,[3],-VE
same,Structural based (HCI),[6],-VE
same,Cluser analysis,[4],-VE
same,Structural based (HCI),[4],-VE
same,In vivo DILI,[2]; in vivo,-VE
NC[C@H]1O[C@H](O[C@H]2[C@H](O)[C@@H](O[C@H]3O[C@H](CO)[C@@H](O)[C@H](N)[C@H]3O)[C@H](N)C[C@@H]2N)[C@H](O)[C@@H](O)[C@@H]1O [kanamycin],Structural based (HCI),[1],+VE
same,Partition Hybrid HRM Score,[7],-VE
same,Ro2 Hybrid HRM Score,[7],-VE
CC[C@]1(O)CC[C@H]2[C@@H]3CCC4=CCCC[C@@H]4[C@H]3CC[C@@]21C [ethylestrenol],Structural based (HCI),[1]; [9],+VE (lowest HCI endpoint IC50 (or in the absence of dose–response < 100 µM) < 30 × total human plasma exposure levels (Cmax.tot))
same,In vivo DILI,[2]; ref O'Brien 2006,+VE
Cc1ccc(S(=O)(=O)NC(=O)NN2CCCCCC2)cc1 [tolazamide],"DILI +VE (5-8), DILI -VE (-4)",[5]; ref Chen 2016,+VE
same,DILI severity category,[5]; ref Chen 2016,vLess-DILI-Concern
same,Structural based (HCI),[1]; [9],+VE (lowest HCI endpoint IC50 (or in the absence of dose–response < 100 µM) < 30 × total human plasma exposure levels (Cmax.tot))
same,In vivo DILI,[2]; ref O'Brien 2006,+VE
